In patent publication US6737383B1, “Herbicidal oxadiazolidines” (priority 1999, dated 2004):

Experiments:
pigweed = assay: Test B pre/postemergence pigweed; assay type: in vivo, Amaranthus retroflexus
Summary of the method: (§1)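 Test chemicals in a non-phytotoxic solvent mixture with surfactant were sprayed preemergence onto planted seeds and postemergence onto plants 2 to 18 cm tall (1- to 4-leaf stage). After twelve to sixteen days in a greenhouse, injury was visually rated against untreated controls from 0 (no effect) to 10 (complete control).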

rape = assay: Test B pre/postemergence rape; assay type: in vivo, Brassica napus
Summary of the method: as §1

giant foxtail = assay: Test B pre/postemergence giant foxtail; assay type: in vivo, Setaria faberii
Summary of the method: as §1

corn = assay: Test B pre/postemergence corn; assay type: in vivo, Zea mays
Summary of the method: as §1

blackgrass = assay: Test B pre/postemergence blackgrass; assay type: in vivo, Alopecurus myosuroides
Summary of the method: as §1

purple nutsedge = assay: Test B pre/postemergence purple nutsedge; assay type: in vivo, Cyperus rotundus
Summary of the method: as §1

morningglory = assay: Test B pre/postemergence morningglory; assay type: in vivo, Ipomoea hederacea
Summary of the method: as §1

cocklebur = assay: Test B pre/postemergence cocklebur; assay type: in vivo, Xanthium strumarium
Summary of the method: as §1

crabgrass = assay: Test B pre/postemergence crabgrass; assay type: in vivo, Digitaria sanguinalis
Summary of the method: as §1

sugar beet = assay: Test B pre/postemergence sugar beet; assay type: in vivo, Beta vulgaris
Summary of the method: as §1

soybean = assay: Test B pre/postemergence soybean; assay type: in vivo, Glycine max
Summary of the method: as §1

surinam grass = assay: Test B pre/postemergence surinam grass; assay type: in vivo, Brachiaria decumbens
Summary of the method: as §1

wheat = assay: Test B pre/postemergence wheat; assay type: in vivo, Triticum aestivum
Summary of the method: as §1

wild oat = assay: Test B pre/postemergence wild oat; assay type: in vivo, Avena fatua
Summary of the method: as §1

bedstraw = assay: Test B pre/postemergence bedstraw; assay type: in vivo, Galium aparine; details: for Bedstraw plant response rating: Rate 500 g/ha
Summary of the method: as §1

velvetleaf = assay: Test B pre/postemergence velvetleaf; assay type: in vivo, Abutilon theophrasti
Summary of the method: as §1

[1] = Postemergence, Rate 62 g/ha, scale 0 to 10, 0 is no effect, 10 is complete control
[2] = Postemergence, Rate 250 g/ha, scale 0 to 10, 0 no effect, 10 complete control
[3] = Preemergence, Rate 62 g/ha, scale 0 to 10, 0 is no effect, 10 is complete control
[4] = Preemergence, Rate 125 g/ha, scale 0 to 10 (0 no effect, 10 complete control)
[5] = Preemergence, Rate 250 g/ha, scale of 0 to 10 where 0 is no effect and 10 is complete control
[6] = Preemergence, Rate 500 g/ha, scale 0 (no effect) to 10 (complete control)
[7] = Rate 125 g/ha, Postemergence, scale 0 to 10, 0 no effect, 10 complete control
[8] = Rate 500 g/ha, Postemergence, 0 to 10 scale (0 no effect, 10 complete control)

Cc1ccccc1-n1c(=O)on(C(=O)N(c2ccc(C(F)(F)F)cc2)C(C)C)c1=O [Compound 39]
Redroot pigweed plant response rating (pigweed; [1]): 0 | Redroot pigweed plant response rating (pigweed; [2]): 0 | Plant response rating, Redroot pigweed (pigweed; [3]): 0 | Plant response rating, Redroot pigweed (pigweed; [4]): 5 | Plant response rating, Redroot pigweed (pigweed; [5]): 6 | Redroot pigweed plant response rating (pigweed; [6]): 6 | Redroot pigweed plant response rating (pigweed; [7]): 0 | Redroot pigweed plant response rating (pigweed; [8]): 0 | Rape plant response rating (rape; [1]): 0 | Rape plant response rating (rape; [2]): 0 | Plant response rating, Rape (rape; [3]): 2 | Plant response rating, Rape (rape; [4]): 0 | Plant response rating, Rape (rape; [5]): 0 | Rape plant response rating (rape; [6]): 0 | Rape plant response rating (rape; [7]): 0 | Rape plant response rating (rape; [8]): 0 | Giant foxtail plant response rating (giant foxtail; [1]): 0 | Giant foxtail plant response rating (giant foxtail; [2]): 0 | Plant response rating, Giant foxtail (giant foxtail; [3]): 0 | Plant response rating, Giant foxtail (giant foxtail; [4]): 0 | Giant foxtail plant response rating (giant foxtail; [6]): 10 | Giant foxtail plant response rating (giant foxtail; [7]): 0 | Giant foxtail plant response rating (giant foxtail; [8]): 0 | Corn plant response rating (corn; [1]): 0 | Corn plant response rating (corn; [2]): 0 | Plant response rating, Corn (corn; [3]): 0 | Plant response rating, Corn (corn; [4]): 0 | Plant response rating, Corn (corn; [5]): 0 | Corn plant response rating (corn; [6]): 0 | Corn plant response rating (corn; [7]): 0 | Corn plant response rating (corn; [8]): 0 | Blackgrass plant response rating (blackgrass; [1]): 0 | Blackgrass plant response rating (blackgrass; [2]): 0 | Plant response rating, Blackgrass (blackgrass; [3]): 0 | Plant response rating, Blackgrass (blackgrass; [4]): 0 | Plant response rating, Blackgrass (blackgrass; [5]): 0 | Blackgrass plant response rating (blackgrass; [6]): 0 | Blackgrass plant response rating (blackgrass; [7]): 0 | Blackgrass plant response rating (blackgrass; [8]): 0 | Nutsedge plant response rating (purple nutsedge; [1]): 0 | Nutsedge plant response rating (purple nutsedge; [2]): 0 | Plant response rating, Nutsedge (purple nutsedge; [3]): 0 | Plant response rating, Nutsedge (purple nutsedge; [4]): 0 | Plant response rating, Nutsedge (purple nutsedge; [5]): 0 | Nutsedge plant response rating (purple nutsedge; [6]): 0 | Nutsedge plant response rating (purple nutsedge; [7]): 0 | Nutsedge plant response rating (purple nutsedge; [8]): 0 | Morningglory plant response rating (morningglory; [1]): 0 | Morningglory plant response rating (morningglory; [2]): 0 | Plant response rating, Morningglory (morningglory; [3]): 0 | Plant response rating, Morningglory (morningglory; [4]): 0 | Plant response rating, Morningglory (morningglory; [5]): 0 | Morningglory plant response rating (morningglory; [6]): 0 | Morningglory plant response rating (morningglory; [7]): 0 | Morningglory plant response rating (morningglory; [8]): 0 | Cocklebur plant response rating (cocklebur; [1]): 0 | Cocklebur plant response rating (cocklebur; [2]): 0 | Plant response rating, Cocklebur (cocklebur; [3]): 0 | Plant response rating, Cocklebur (cocklebur; [4]): 0 | Plant response rating, Cocklebur (cocklebur; [5]): 0 | Cocklebur plant response rating (cocklebur; [6]): 0 | Cocklebur plant response rating (cocklebur; [7]): 0 | Cocklebur plant response rating (cocklebur; [8]): 0 | Crabgrass plant response rating (crabgrass; [1]): 0 | Crabgrass plant response rating (crabgrass; [2]): 3 | Plant response rating, Crabgrass (crabgrass; [3]): 0 | Plant response rating, Crabgrass (crabgrass; [4]): 3 | Plant response rating, Crabgrass (crabgrass; [5]): 5 | Crabgrass plant response rating (crabgrass; [6]): 6 | Crabgrass plant response rating (crabgrass; [7]): 0 | Crabgrass plant response rating (crabgrass; [8]): 4 | Sugarbeets plant response rating (sugar beet; [1]): 0 | Sugarbeets plant response rating (sugar beet; [2]): 0 | Plant response rating, Sugarbeets (sugar beet; [3]): 2 | Plant response rating, Sugarbeets (sugar beet; [4]): 0 | Plant response rating, Sugarbeets (sugar beet; [5]): 0 | Sugarbeets plant response rating (sugar beet; [6]): 0 | Sugarbeets plant response rating (sugar beet; [7]): 0 | Soybean plant response rating (soybean; [1]): 3 | Soybean plant response rating (soybean; [2]): 4 | Plant response rating, Soybean (soybean; [3]): 0 | Plant response rating, Soybean (soybean; [4]): 0 | Plant response rating, Soybean (soybean; [5]): 0 | Soybean plant response rating (soybean; [6]): 0 | Soybean plant response rating (soybean; [7]): 4 | B. signalgrass plant response rating (surinam grass; [1]): 0 | B. signalgrass plant response rating (surinam grass; [2]): 0 | Plant response rating, B. signalgrass (surinam grass; [3]): 0 | Plant response rating, B. signalgrass (surinam grass; [4]): 0 | Plant response rating, B. signalgrass (surinam grass; [5]): 0 | B. signalgrass plant response rating (surinam grass; [6]): 0 | B. signalgrass plant response rating (surinam grass; [7]): 0 | B. signalgrass plant response rating (surinam grass; [8]): 0 | Wheat plant response rating (wheat; [1]): 0 | Wheat plant response rating (wheat; [2]): 0 | Plant response rating, Wheat (wheat; [3]): 0 | Plant response rating, Wheat (wheat; [4]): 0 | Plant response rating, Wheat (wheat; [5]): 0 | Wheat plant response rating (wheat; [6]): 0 | Wheat plant response rating (wheat; [7]): 0 | Wild oats plant response rating (wild oat; [1]): 0 | Wild oats plant response rating (wild oat; [2]): 0 | Plant response rating, Wild oats (wild oat; [4]): 0 | Plant response rating, Wild oats (wild oat; [5]): 0 | Wild oats plant response rating (wild oat; [6]): 0 | Wild oats plant response rating (wild oat; [7]): 0 | Plant response rating, Bedstraw (bedstraw; [3]): 0 | Plant response rating, Bedstraw (bedstraw; [4]): 0 | Plant response rating, Bedstraw (bedstraw; [5]): 0 | Bedstraw plant response rating (bedstraw; Preemergence, scale 0 (no effect) to 10 (complete control)): 0 | Bedstraw plant response rating (bedstraw; Postemergence, 0 to 10 scale (0 no effect, 10 complete control)): 0 | Velvetleaf plant response rating (velvetleaf; [2]): 0 | Plant response rating, Velvetleaf (velvetleaf; [3]): 0 | Plant response rating, Velvetleaf (velvetleaf; [4]): 0 | Plant response rating, Velvetleaf (velvetleaf; [5]): 0 | Velvetleaf plant response rating (velvetleaf; [6]): 0 | Velvetleaf plant response rating (velvetleaf; [7]): 0
